Experimental data reported in patent publication US20110034429A1, “5a-ANDROSTANE-3,6,17-TRIONE (KNELLER'S TRIONE) AND METHODS OF USE THEREFOR” (priority 2009, published 2011).

Tests used:
[1] = Pilot study: oral daily Kneller's Trione in men, plasma sex hormone profile; assay type: in vivo, human; conditions: for change of testosterone-to-estradiol ratio: 14 days, ending vs starting ratio; for TOTAL TESTOSTERONE / ESTRADIOL / DHT: person
Description: The first study subject was a person who was dosed once per day orally with 25 mg per day of Kneller's Trione.
The second study subject was a person who was dosed once per day orally with 50 mg per day of Kneller's Trione.
The third study subject was a person who was dosed once per day orally with 100 mg per day of Kneller's Trione.

[2] = Pilot study: adverse events and safety observations in study subjects; assay type: in vivo, human

## C[C@]12CCC(=O)C[C@@H]1C(=O)C[C@@H]1[C@@H]2CC[C@]2(C)C(=O)CC[C@@H]12 [Kneller's Trione, 5α-androstane-3,6,17-trione]
[1]; 25 mg daily oral
  change of testosterone-to-estradiol ratio: 130%
[1]; 50 mg daily oral
  change of testosterone-to-estradiol ratio: 28%
[1]; 250 mg per day oral
  effect on bioavailable testosterone level: raised
  effect on total testosterone level: raised
[1]; 500 mg per day oral
  effect on bioavailable testosterone level: raised
  effect on total testosterone level: raised
[1]; 750 mg per day oral
  added benefits with high dosage: no added benefits were seen
[1]; general statement
  changes in plasma estradiol levels in men: no changes outside the accepted normal limits
  effect on plasma testosterone levels in men: substantial and significant increases
[1]; oral administration
  increase of plasma free testosterone levels: more than 100%
[1]; 25 mg per day oral, single dose, DAY 7 (baseline 6,290 pg/mL)
  TOTAL TESTOSTERONE: 6,400 pg/mL
[1]; 25 mg per day oral, DAY 7 (baseline 47 pg/mL)
  ESTRADIOL: 28 pg/mL
[1]; 25 mg per day oral, DAY 7 (baseline 42 ng/dL)
  DHT: 36 ng/dL
[1]; 25 mg per day oral, DAY 14 (baseline 47 pg/mL)
  ESTRADIOL: 23 pg/mL
[1]; 25 mg per day oral, DAY 14 (baseline 42 ng/dL)
  DHT: 49 ng/dL
[1]; 50 mg per day oral, single dose, DAY 7 (baseline 8,570 pg/mL)
  TOTAL TESTOSTERONE: 11,000 pg/mL
[1]; 50 mg per day oral, DAY 7 (baseline 36 pg/mL)
  ESTRADIOL: 35 pg/mL
[1]; 50 mg per day oral, DAY 7 (baseline 47 ng/dL)
  DHT: 46 ng/dL
[1]; 50 mg per day oral, DAY 14 (baseline 36 pg/mL)
  ESTRADIOL: 36 pg/mL
[1]; 50 mg per day oral, DAY 14 (baseline 8,570 pg/mL)
  TOTAL TESTOSTERONE: 11,000 pg/mL
[1]; 50 mg per day oral, DAY 14 (baseline 47 ng/dL)
  DHT: 49 ng/dL
[1]; 100 mg per day oral, DAY 7 (baseline 46 pg/mL)
  ESTRADIOL: 44 pg/mL
[1]; 100 mg per day oral, DAY 7 (baseline 35 ng/dL)
  DHT: 48 ng/dL
[1]; 100 mg per day oral, DAY 14 (baseline 46 pg/mL)
  ESTRADIOL: 34 pg/mL
[1]; 100 mg per day oral, DAY 14 (baseline 35 ng/dL)
  DHT: 41 ng/dL
[2]; 750 mg per day oral
  adverse event causing the subject to withdraw: priaprism
[2]; oral daily dosages 25 mg to 750 mg
  other adverse events noted by any study subject: No other adverse events
